Literature values, collected in patent publication US20130295052A1, “NOVEL CONJUGATES FOR TARGETED DRUG DELIVERY” (priority 2010, published 2013).
Read-outs that look alike come from different tables or passages of the source.

For CC(=O)O[C@@]12CO[C@@H]1C[C@H](O)[C@@]1(C)C(=O)[C@H](O)C3=C(C)[C@@H](OC(=O)[C@H](O)[C@@H](NC(=O)OC(C)(C)C)c4ccccc4)C[C@@](O)([C@@H](OC(=O)c4ccccc4)[C@H]21)C3(C)C [Taxotere, Docetaxel], the “grade 4 neutropenia (<500 cells/mm3), patients” value (60 mg/m2) is given as 75%, the “grade 4 neutropenia (<500 cells/mm3), patients” value (100 mg/m2) is given as 85% and the “neutropenia (<2,000 neutrophils/mm3) occurrence” value (60-100 mg/m2) is given as “virtually in all patients”.
